From US10077261B2, “Imidazolin-5-one derivative useful as FASN inhibitors for the treatment of cancer” (Janssen Pharmaceutica NV, priority 2012, dated 2018)
pIC50: −log10 of the molar value.

Experiments:
[1] = target: T1, hFASN enzyme (full length) (Homo sapiens, UniProt P49327); test: Fatty Acid Synthase (FASN) inhibition scintillation proximity assay; assay type: biochemical; conditions: for inhibition at 10 µM: read-out: Human FASN % inhibition @ 10 μM, 10 μM test compound; for IC50: read-out: Human FASN pIC50 (converted)
T1 construct: 10 μL hFASN enzyme (full length, 300 ng, purified in house); made in house
T1 sequence (P49327 whole entry): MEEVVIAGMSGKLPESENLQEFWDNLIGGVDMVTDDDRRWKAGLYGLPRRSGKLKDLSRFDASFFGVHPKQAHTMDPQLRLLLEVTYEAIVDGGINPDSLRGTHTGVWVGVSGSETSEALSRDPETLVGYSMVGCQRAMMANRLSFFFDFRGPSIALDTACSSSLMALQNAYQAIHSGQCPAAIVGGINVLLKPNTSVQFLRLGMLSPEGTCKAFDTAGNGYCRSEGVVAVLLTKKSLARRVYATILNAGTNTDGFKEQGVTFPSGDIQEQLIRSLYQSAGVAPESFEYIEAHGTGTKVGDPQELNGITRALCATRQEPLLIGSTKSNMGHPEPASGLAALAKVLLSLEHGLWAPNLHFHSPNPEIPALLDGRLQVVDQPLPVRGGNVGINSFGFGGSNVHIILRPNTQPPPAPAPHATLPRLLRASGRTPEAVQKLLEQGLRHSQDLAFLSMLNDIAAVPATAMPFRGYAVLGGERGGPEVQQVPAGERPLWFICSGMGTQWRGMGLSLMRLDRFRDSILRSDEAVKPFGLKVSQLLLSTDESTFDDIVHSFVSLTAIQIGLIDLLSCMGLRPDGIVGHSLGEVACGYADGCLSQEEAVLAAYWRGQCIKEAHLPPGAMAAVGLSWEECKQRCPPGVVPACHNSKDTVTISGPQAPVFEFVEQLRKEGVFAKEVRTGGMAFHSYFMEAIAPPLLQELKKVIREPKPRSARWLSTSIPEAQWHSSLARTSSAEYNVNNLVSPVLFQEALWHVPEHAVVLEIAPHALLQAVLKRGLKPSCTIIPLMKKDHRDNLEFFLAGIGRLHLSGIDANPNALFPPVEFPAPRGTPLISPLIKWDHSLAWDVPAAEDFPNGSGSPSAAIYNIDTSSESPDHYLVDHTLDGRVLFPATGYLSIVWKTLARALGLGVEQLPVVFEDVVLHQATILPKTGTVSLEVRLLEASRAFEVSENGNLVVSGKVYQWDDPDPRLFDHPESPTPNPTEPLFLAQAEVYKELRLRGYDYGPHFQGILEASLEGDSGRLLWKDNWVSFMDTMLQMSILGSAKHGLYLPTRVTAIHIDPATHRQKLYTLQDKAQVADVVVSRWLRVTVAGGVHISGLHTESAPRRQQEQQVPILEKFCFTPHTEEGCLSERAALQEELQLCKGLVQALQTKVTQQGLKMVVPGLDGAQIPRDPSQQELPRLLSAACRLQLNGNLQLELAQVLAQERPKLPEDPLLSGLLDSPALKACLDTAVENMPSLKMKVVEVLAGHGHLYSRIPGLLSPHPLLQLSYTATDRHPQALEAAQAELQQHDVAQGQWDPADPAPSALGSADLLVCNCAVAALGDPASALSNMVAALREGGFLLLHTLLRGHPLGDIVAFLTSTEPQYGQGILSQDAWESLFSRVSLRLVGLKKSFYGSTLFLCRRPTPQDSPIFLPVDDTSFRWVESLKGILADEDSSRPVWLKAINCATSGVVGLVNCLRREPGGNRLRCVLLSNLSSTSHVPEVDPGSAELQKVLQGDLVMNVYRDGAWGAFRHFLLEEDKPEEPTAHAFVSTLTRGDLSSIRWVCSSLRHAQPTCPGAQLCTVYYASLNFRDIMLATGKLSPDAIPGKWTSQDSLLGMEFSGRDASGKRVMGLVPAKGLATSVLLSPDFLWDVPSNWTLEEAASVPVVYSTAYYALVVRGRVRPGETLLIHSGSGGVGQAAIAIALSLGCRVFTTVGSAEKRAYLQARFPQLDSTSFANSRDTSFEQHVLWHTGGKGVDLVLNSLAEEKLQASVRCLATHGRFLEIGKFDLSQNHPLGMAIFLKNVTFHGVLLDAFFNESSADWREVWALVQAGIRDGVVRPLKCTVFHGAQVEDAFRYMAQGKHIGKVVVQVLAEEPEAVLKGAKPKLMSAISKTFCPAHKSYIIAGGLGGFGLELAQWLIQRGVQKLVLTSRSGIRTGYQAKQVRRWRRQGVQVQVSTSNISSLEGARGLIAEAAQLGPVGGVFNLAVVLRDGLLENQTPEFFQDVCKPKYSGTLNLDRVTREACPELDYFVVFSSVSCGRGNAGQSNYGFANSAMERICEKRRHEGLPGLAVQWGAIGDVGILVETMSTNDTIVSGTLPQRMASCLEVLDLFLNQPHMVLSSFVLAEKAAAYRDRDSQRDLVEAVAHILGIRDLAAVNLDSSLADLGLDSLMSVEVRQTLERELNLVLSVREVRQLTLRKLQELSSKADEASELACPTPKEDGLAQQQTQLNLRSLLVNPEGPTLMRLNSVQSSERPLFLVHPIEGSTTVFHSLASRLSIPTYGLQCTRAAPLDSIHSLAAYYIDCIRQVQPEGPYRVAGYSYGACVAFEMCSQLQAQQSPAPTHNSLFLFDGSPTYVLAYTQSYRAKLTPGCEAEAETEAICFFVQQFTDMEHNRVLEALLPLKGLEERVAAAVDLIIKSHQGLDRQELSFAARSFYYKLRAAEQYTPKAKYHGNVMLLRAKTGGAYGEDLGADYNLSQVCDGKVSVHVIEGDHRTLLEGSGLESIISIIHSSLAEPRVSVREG
How it was run: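 Compounds at 0.01–30 μM were mixed with 300 ng purified full-length enzyme in 100 mM KH2PO4 pH 7.5, 1 mM DTT. Substrates ³H-acetyl-CoA and malonyl-CoA were then converted, and bead addition stopped the reaction. Signal was normalised to low and high plate controls and fitted by 4-parameter nonlinear regression.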

[2] = system: LNCaP-Vancouver prostate cells; test: In vitro LNCaP Vancouver prostate cell proliferation assay in lipid reduced medium; assay type: cell-based; conditions: read-out: pIC50 LNCaP_Vancouver prostate cell (converted)
[3] = system: PC-3M-Luc-C6 prostate cells; test: In vitro PC-3M-Luc-C6 prostate cell proliferation assay in lipid reduced medium; assay type: cell-based; conditions: 96 h, read-out: pIC50 PC-3M-Luc-C6 prostate cell (converted)
[4] = target: Fatty Acid Synthase Keto-reductase Domain (FASN KR) (Homo sapiens, UniProt P49327); test: Fatty Acid Synthase keto-reductase domain (FASN KR) inhibition, NADPH oxidation at 340 nm
Sequence of Fatty Acid Synthase Keto-reductase Domain (FASN KR) (P49327 whole entry, the tested form may be a part): as the sequence (P49327 whole entry) above
Experimental: After 20 minutes incubation at room temperature the plate was measured again (T2).
The decrease in absorbance was calculated as (Absorbance before incubation T1)−(Absorbance following incubation T2).
A plot of Controlmin versus test compound concentration was fitted to a 4-parameter logistic curve using a non-linear least squares regression method.

[5] = system: A2780 ovarian cells; test: A2780 ovarian cell proliferation assay in lipid reduced medium, with palmitate (MTT); assay type: cell-based; conditions: Homo sapiens, A2780, 96 h; read-out: pIC50 A2780 Ovarian Cell, With Palmitate (converted)
How it was run: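 Seeded cells were switched next day to lipid-reduced serum, exposed to compound and 25 μM palmitate complexed with fatty-acid-free BSA, and incubated 96 h. Proliferation was then determined by MTT absorbance at 544 nm, with a best-fit curve of signal against concentration.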

[6] = system: A2780 ovarian cells; test: A2780 ovarian cell proliferation assay in lipid reduced medium, without palmitate (MTT); assay type: cell-based; conditions: Homo sapiens, A2780, 96 h; read-out: pIC50 A2780 Ovarian Cell, Without Palmitate (converted)

In the case of `Cn1cc(-c2ccc(-c3ccc(C4=NC5(CCOCC5)C(=O)N4C[C@@H]4CCN(C(=O)[C@H]5CCCO5)C4)cc3)cc2)cn1` [compound 657, 2-[4′-(1-Methyl-1H-pyrazol-4-yl)biphenyl-4-yl]-3-({(3R)-1-[(2R)-tetrahydro-furan-2-ylcarbonyl]pyrrolidin-3-yl}methyl)-8-oxa-1,3-diazaspiro[4.5]dec-1-en-4-one], the inhibition at 10 µM [1] was 97%, the IC50 [1] was 309 nM and the IC50 [2] was 3800 nM. It also gave an IC50 [3] of 589 nM and a pIC50 [4] of 6.18.
With `Cc1cc(-c2ccc3c(cnn3C)c2)ccc1C1=NC2(CC2)C(=O)N1CC1CN(C(=O)CC2CC2)C1` [compound 499, 6-{[1-(Cyclopropylacetyl)azetidin-3-yl]methyl}-5-[2-methyl-4-(1-methyl-1H-indazol-5-yl)phenyl]-4,6-diazaspiro[2.4]hept-4-en-7-one] the inhibition at 10 µM [1] was 96%, the IC50 [1] was 245 nM and the IC50 [2] was 4270 nM. For the same molecule, the IC50 [3] was 457 nM and the pIC50 [4] was 6.32.
`Cn1cc(-c2ccc(-c3ccc(C4=NC5(CCOCC5)C(=O)N4C[C@@H]4CCN(C(=O)C5CC5)C4)cc3)cc2)cn1` [compound 655, 3-{[(3R)-1-(cyclopropylcarbonyl)pyrrolidin-3-yl]methyl}-2-[4′-(1-methyl-1H-pyrazol-4-yl)biphenyl-4-yl]-8-oxa-1,3-diazaspiro[4.5]dec-1-en-4-one] gave an inhibition at 10 µM [1] of 99%, an IC50 [1] of 178 nM and an IC50 [2] of about 2510 nM. For the same molecule, the IC50 [3] was about 234 nM and the pIC50 [4] was 6.39.
Molecule `CC(O)C(=O)N1CC(CN2C(=O)C3(CCOCC3)N=C2c2ccc(-c3ccc4cccnc4c3)cc2)C1` (centres unmarked) [compound 699, 3-{[1-(2-Hydroxypropanoyl)azetidin-3-yl]methyl}-2-(4-quinolin-7-ylphenyl)-8-oxa-1,3-diazaspiro[4.5]dec-1-en-4-one] has an inhibition at 10 µM [1] of 89%, an IC50 [1] of about 724 nM and an IC50 [2] of over 10000 nM. For the same molecule, the IC50 [3] was 5130 nM and the pIC50 [4] was 5.27.
For `COC(=O)N1CC2(C1)N=C(c1ccc(-c3ccc4occc4c3)cc1)N(C[C@@H]1CCN(C(=O)C3CC3)C1)C2=O` [compound 733, Methyl 6-[4-(1-benzofuran-5-yl)phenyl]-7-{[(3R)-1-(cycloprropylcarbonyl)pyrrolidin-3-yl]methyl}-8-oxo-2,5,7-triazaspiro[3.4]oct-5-ene-2-carboxylate], the inhibition at 10 µM [1] was 96%, the IC50 [1] was 200 nM and the IC50 [2] was 3310 nM. It also gave an IC50 [3] of 1290 nM and a pIC50 [4] of 6.27.
`O=C(C1CC1)N1CC(CN2C(=O)C3(CC3)N=C2c2ccc(-c3ccc4cccnc4c3F)cc2)C1` [compound 315, 6-((1-(cyclopropanecarbonyl)azetidin-3-yl)methyl)-5-(4-(8-fluoroquinolin-7-yl)phenyl)-4,6-diazaspiro[2.4]hept-4-en-7-one] showed an inhibition at 10 µM [1] of 98%, an IC50 [1] of 66.1 nM and an IC50 [2] of 631 nM. The IC50 [3] was 123 nM and the pIC50 [4] was 6.60.
`Cn1cc2cc(-c3ccc(C4=NC5(CC5)C(=O)N4CC4CN(C(=O)C5CC5)C4)cc3)ccc2n1` [compound 507, 6-{[1-(Cyclopropylcarbonyl)azetidin-3-yl]methyl}-5-[4-(2-methyl-2H-indazol-5-yl)phenyl]-4,6-diazaspiro[2.4]hept-4-en-7-one] was tested, and the inhibition at 10 µM [1] was 89%, the IC50 [1] was 417 nM and the IC50 [2] was 6030 nM. For the same molecule, the IC50 [3] was about 1170 nM and the pIC50 [4] was 5.44.
`Cn1ncc2cc(-c3ccc(C4=NC5(CCOC5)C(=O)N4C[C@@H]4CCN(C(=O)[C@H]5CCCO5)C4)cc3)ccc21` (stereo partly drawn) [compound 692, 2-[4-(1-Methyl-1H-indazol-5-yl)phenyl]-3-({(3R)-1-[(2R)-tetrahydro-furan-2-ylcarbonyl]pyrrolidin-3-yl}metrhyl)-7-oxa-1,3-diazaspiro[4.4]non-1-en-4-one] gave an inhibition at 10 µM [1] of 99%, an IC50 [1] of 794 nM and an IC50 [2] of 4570 nM. For the same molecule, the IC50 [3] was 1580 nM and the pIC50 [4] was 5.49.
In the case of `COC(=O)N1CC2(C1)N=C(c1ccc(-c3ccc4cccnc4c3)cc1)N(C[C@@H]1CCN(C(=O)[C@H]3CCCO3)C1)C2=O` [compound 730, Methyl 8-oxo-6-(4-quinolin-7-ylphenyl)-7-({(3R)-1-[(2R)-tetrahydro-furan-2-ylcarbonyl]pyrrolidin-3-yl}methyl)-2,5,7-triazaspiro[3.4]oct-5-ene-2-carboxylate], the inhibition at 10 µM [1] was 102%, the IC50 [1] was 100 nM and the IC50 [2] was about 407 nM. It also gave an IC50 [3] of 97.7 nM and a pIC50 [4] of 6.45.
With `O=C([C@H]1CCCO1)N1CC[C@@H](CN2C(=O)C3(CCOCC3)N=C2c2ccc(-c3ccc4cccnc4c3)cc2)C1` [compound 663, 2-(4-Quinolin-7-ylphenyl)-3-({(3R)-1-[(2R)-tetrahydro-furan-2-ylcarbonyl]pyrrolidin-3-yl}methyl)-8-oxa-1,3-diazaspiro[4.5]dec-1-en-4-one] the inhibition at 10 µM [1] was 100%, the IC50 [1] was 64.6 nM and the IC50 [2] was 550 nM. It also gave an IC50 [3] of 117 nM and a pIC50 [4] of 6.56.
Work on `Cn1ccc2cc(-c3ccc(C4=NC5(CC5)C(=O)N4CC4CN(C(=O)C5CC5)C4)cc3)ccc21` [compound 344, 6-((1-(cyclopropanecarbonyl)azetidin-3-yl)methyl)-5-(4-(1-methyl-1H-indol-5-yl)phenyl)-4,6-diazaspiro[2.4]hept-4-en-7-one] yielded an inhibition at 10 µM [1] of 99%, an IC50 [1] of 25.7 nM and an IC50 [2] of 141 nM. It also gave an IC50 [3] of about 32.4 nM and a pIC50 [4] of 7.34.
`O=C([C@H]1CCCO1)N1CC(CN2C(=O)C3(CCOCC3)N=C2c2ccc(-c3ccc4occc4c3)cc2)C1` [compound 704, 2-[4-(1-Benzofuran-5-yl)phenyl]-3-({1-[(2R)-tetrahydro-furan-2-ylcarbonyl]azetidin-3-yl}methyl)-8-oxa-1,3-diazaspiro[4.5]dec-1-en-4-one] showed an inhibition at 10 µM [1] of 86%, an IC50 [1] of 871 nM and an IC50 [2] of 6920 nM. The IC50 [3] was about 5750 nM and the pIC50 [4] was 5.18.
With `O=C(C1CC1)N1CC[C@@H](CN2C(=O)C3(CC3)N=C2c2ccc(-c3ccc4cncnc4c3)cc2)C1` [compound 312, (R)-6-((1-(cyclopropanecarbonyl)pyrrolidin-3-yl)methyl)-5-(4-(quinazolin-7-yl)phenyl)-4,6-diazaspiro[2.4]hept-4-en-7-one] the inhibition at 10 µM [1] was 101%, the IC50 [1] was 75.9 nM and the IC50 [2] was 123 nM. For the same molecule, the IC50 [3] was about 52.5 nM and the pIC50 [4] was 7.12.
`COC(=O)N1CC2(C1)N=C(c1ccc(-c3ccc4cccnc4c3)cc1)N(C[C@@H]1CCN(C(=O)C3CC3)C1)C2=O` [compound 728, Methyl 7-{[(3R)-1-(cyclopropylcarbonyl)pyrrolidin-3-yl]methyl}-8-oxo-6-(4-quinolin-7-ylphenyl)-2,5,7-triazaspiro[3.4]ect-5-ene-2-carboxylate] gave an inhibition at 10 µM [1] of 100%, an IC50 [1] of 64.6 nM and an IC50 [2] of 525 nM. For the same molecule, the IC50 [3] was 151 nM and the pIC50 [4] was 6.50.
`CC(O)C(=O)N1CC(CN2C(=O)C3(CCOC3)N=C2c2ccc(-c3ccc4cccnc4c3)cc2)C1` (centres unmarked) [compound 715, 3-{[1-(2-Hydroxypropanoyl)azetidin-3-yl]methyl}-2-(4-quinolin-7-ylphenyl)-7-oxa-1,3-diazaspiro[4.4]non-1-en-4-one] gave an inhibition at 10 µM [1] of 86%, an IC50 [1] of 724 nM and an IC50 [2] of over 10000 nM. The IC50 [3] was 5010 nM and the pIC50 [4] was 5.26.
With `Cn1ncc2cc(-c3ccc(C4=NC5(CCOCC5)C(=O)N4C[C@@H]4CCN(C(=O)[C@H]5CCCO5)C4)cc3)ccc21` [compound 674, 2-[4-(1-Methyl-1H-indazol-5-yl)phenyl]-3-({(3R)-1-[(2R)-tetrahydro-furan-2-ylcarbonyl]pyrrolidin-3-yl}methyl)-8-oxa-1,3-diazaspiro[4.5]dec-1-en-4-one] the inhibition at 10 µM [1] was 94%, the IC50 [1] was 457 nM and the IC50 [2] was about 4900 nM. For the same molecule, the IC50 [3] was about 813 nM and the pIC50 [4] was 5.50.
Work on `O=C(C1CC1)N1CC(CN2C(=O)C3(CC3)N=C2c2ccc(-c3ccc4cccnc4n3)cc2)C1` [compound 511, 6-{[1-(Cyclopropylcarbonyl)azetidin-3-yl]methyl}-5-[4-(1,8-naphthyridin-2-yl)phenyl]-4,6-diazaspiro[2.4]hept-4-en-7-one] yielded an inhibition at 10 µM [1] of 94%, an IC50 [1] of 355 nM and an IC50 [2] of 4680 nM. It also gave an IC50 [3] of about 891 nM and a pIC50 [4] of 5.50.
Molecule `O=C([C@H]1CCCO1)N1CC[C@@H](CN2C(=O)C3(CCOC3)N=C2c2ccc(-c3ccc4occc4c3)cc2)C1` (stereo partly drawn) [compound 688, 2-[4-(1-Benzofuran-5-yl)phenyl]-3-({(3R)-1-[(2R)-tetrahydro-furan-2-ylcarbonyl]pyrrolidin-3-yl}methyl)-7-oxa-1,3-diazaspiro[4.4]non-1-en-4-one] has an inhibition at 10 µM [1] of 99%, an IC50 [1] of 214 nM and an IC50 [2] of 2950 nM. It also gave an IC50 [3] of 832 nM and a pIC50 [4] of 6.28.
In the case of `Cc1cc(-c2ccc3c(c2)ncn3C)ccc1C1=NC2(CC2)C(=O)N1CC1CN(C(=O)C2(O)CC2)C1` [compound 628, 6-({1-[(1-Hydroxycyclopropyl)carbonyl]azetidin-3-yl}methyl)-5-[2-methyl-4-(1-methyl-1H-benzimidazol-5-yl)phenyl]-4,6-diazaspiro[2.4]hept-4-en-7-one], the inhibition at 10 µM [1] was 100%, the IC50 [5] was over 10000 nM and the IC50 [6] was 66.1 nM. For the same molecule, the IC50 [2] was 724 nM and the IC50 [3] was 162 nM.
